In one assay the test system is adjuvant arthritis. Briefly: Adjuvant arthritis inhibition (hind-foot volume, primary and secondary lesions). Format: in vivo, Wistar male rats (Taiwan strain). As to conditions: five daily doses, rat; for Percent Reduction in Edema of the Primary Lesion: injected right hind paw measured four hours after fifth dose; for Percent Reduction in Edema of the Secondary Lesion: uninjected foot measured fourteen days after adjuvant inoculation. An excerpt:
(§1) The first test is for adjuvant arthritis inhibition and the second, an anti-edema test, involves the diminution of experimental edema induced in the hind paw of a rat by the injection of carrageenin.
This test was run according to the test procedure recited by VanArman, G. C., Nuss, G. W. and Risley, E. A., J. Pharmacol..Exper. Terap., 187:400-413, 1973. The following is a description of the test: • The hind-foot volumes of five Wistar male. rats (Taiwan strain) weighing 130-160 g each were measured by fluid displacement immediately prior to intraplantar administration (right hind paw) of 0.1 ml of an adjuvant suspension containing 5 milligrams (mg) Mycobacterium butyricum bacilli suspended in heavy mineral oil. Test compounds were orally administered to the animals for five days beginning the day before injection of the adjuvant. Four hours after the fifth daily drug dose the volume of the right hind paw (primary lesion) was measured for determination of any acute anti-inflammatory effect. Fourteen days after adjuvant inoculation the volume of the uninjected foot was measured (secondary lesion) for determination of prolonged anti-inflammatory effect or immunosuppressant effect. The percent reduction in foot volume was calculated for each hind paw in relation to corresponding control values determined simultaneously. A greater than 30 percent reduction in volume of either paw is considered a significant effect. Reduction of the primary lesion without effect on the secondary lesion denotes acute anti-inflammatory activity of short to moderate duration.

Assay [1] deals with carrigeenan-induced swelling. Briefly: Anti-edema test (carrageenin-induced hind paw edema). Format: in vivo, male Wistar rats (Taiwan strain). To be noted: one hour before carrigeenan, measured three hours after injection, rat. The method, then: as §1
Anti-edema effect was determined according to the test procedure recited by Winter, C.A., Risley, E. A., and Nuss, G. W., Proc. Exper. Biol. Med. 111:544-547, 1962. For this test, three male Wistar rats (Taiwan strain) weighing 100-120 g each are orally dosed with test compound dissolved or suspended in 3 ml of water. One hour later, the plantar surface of the right hind paw was injected with 0.1 ml of a 1 percent suspension of carrigeenan in saline and the left paw was similarly injected with saline only. Three hours after the injection the volume of both hind paw was measured by fluid displacement and the percent decrease in carrigeenan-induced swelling (volume of carrigeenan injected foot minus saline injected foot) was determined by comparison with untreated (no test compound) animals. Greater than 30 percent inhibition is considered evidence of an anti-edema effect.

The test system of another assay is Systolic blood pressure. Briefly: Anti-hypertensive screening (systolic blood pressure by tail cuff). Format: in vivo, normotensive Wistar rats (Taiwan strain). As to conditions: 100 mg/kg oral, rat. As for the experimental part: This test was run according to the test procedure recited by Nagoaka, A., Kikuchi, K. and Aramaki, Y., Jap. J. Pharmacol., 19:401-408, 1969. For this test, two normotensive Wistar rats (Taiwan strain) were placed in perspex holders and then placed in a heated chamber at 40°C for 4-6 minutes before treatment. They were maintained there throughout each experiment. Systolic blood pressure was recorded by indirect means employing a tail cuff and pneumatic sensor device applied to the base of the animals' tails. The device was coupled to a programmed Narco-Biosystems sphygmomano meter (Model PE-300), an instrument for measuring blood pressure, and Sanei polygraph. After recording suitably steady blood pressure readings, test drugs were orally administered and blood pressure checked again 2, 4 and 6 hours after drug administration. A mean decrease of more than 10 percent from the pretreatment value at any two consecutive measurement intervals is considered evidence of hypotensive effect.

Counter-ions that a name gives are not always drawn.

`COc1ccc(NC(=S)N=CN(C)C)cc1` [Compound 1, 1-(p-methoxyphenylthiocarbamyl) 3,3-dimethyl formamidine hydrochloride]: in the assay with adjuvant arthritis (5 mg/kg oral), the “Percent Reduction in Edema of the Primary Lesion” value worked out at 39% and the “Percent Reduction in Edema of the Secondary Lesion” value is on record as 35%. Besides, the “Reduction of Induced Edema” value in assay [1] (5 mg/kg oral) is on record as 35%.
Take `CN(C)C=NC(=S)Nc1ccc(Cl)cc1` [Compound 2]: the “Reduction of Induced Edema” value in assay [1] (25 mg/kg oral) is listed as 32%.
For the compound `CCc1cccc(CC)c1NC(=S)N=CN(C)C` [Compound 3], in the assay with adjuvant arthritis (100 mg/kg oral), the “Percent Reduction in Edema of the Primary Lesion” value is 39% and the “Percent Reduction in Edema of the Secondary Lesion” value was 31%. Besides, in assay [1] (100 mg/kg oral), the “Reduction of Induced Edema” value came out at 33%.
`Cc1ccc(NC(=S)N=CN(C)C)c(C)c1` [Compound 4]: the “Percent Mean Decrease in Systolic Blood Pressure” value was found to be 4% in the assay on Systolic blood pressure (2 hours after administration), 17% in the assay on Systolic blood pressure (4 hours after administration) and 15% in the assay with Systolic blood pressure (6 hours after administration). Moreover, the “Percent Reduction in Edema of the Primary Lesion” value in the assay on adjuvant arthritis (100 mg/kg oral) is listed as 0%. Moreover, the “Percent Reduction in Edema of the Secondary Lesion” value in the assay with adjuvant arthritis (100 mg/kg oral) is reported as 0%.
Regarding `CCCCC1C(=O)N(c2ccccc2)N(c2ccccc2)C1=O` [phenylbutazone, reference compound], the “Reduction of Induced Edema” value in assay [1] (100 mg/kg oral) is 41%.
In the case of `C[C@](N)(Cc1ccc(O)c(O)c1)C(=O)O` [α-methyl 3,4-dihydroxy-phenylalanine, reference compound], the “Percent Mean Decrease in Systolic Blood Pressure” value in the assay with Systolic blood pressure (2 hours after administration) was 11%; with Systolic blood pressure (4 hours after administration), 21%; in the assay with Systolic blood pressure (6 hours after administration), 19%.

Values taken from patent publication EP0075047A1, “1-(Substituted phenylthiocarbamyl) 3,3-disubstituted formamidines and their production and pharmaceutical compositions containing them” (STAUFFER CHEMICAL COMPANY, priority 1981, dated 1983).
